For test [1], the system named is Staphylococcus aureus. The test can be described thus: In vitro broth microdilution MIC, Staphylococcus aureus. The conditions noted are these: 24-hour MIC, Mueller-Hinton broth, read-out: Minimum Inhibitory Concentration, Staphylococcus aureus. It is filed as cell-based. The text has this:
(§1) A standard microdilution method (National Committee for Clinical Standards. Tentative standard M7-T. Standard methods for dilution antimicrobial susceptibility tests for bacteria that grow aerobically. National Committee for Clinical Laboratory Standards, Villanova, PA. 1982) with Mueller-Hinton broth is used to determine the 24-hour minimal inhibitory concentrations (MIC's) for test strains of Staphylococcus aureus and Escherichia coli.

The next test deals with Escherichia coli. The test can be described thus: In vitro broth microdilution MIC, Escherichia coli. In kind it is cell-based. The note with it: 24-hour MIC, Mueller-Hinton broth, read-out: Minimum Inhibitory Concentration, Escherichia coli.
Description: as §1
(In general: Dilution methods test growth across graded concentrations, often in twofold steps.)

Test [2] deals with Staphylococcus aureus. As to the kind of experiment: Acute lethal mouse model, intraperitoneal Staphylococcus aureus infection. In kind it is in vivo. The note with it: 168 h, mice dosed 1 h and 4 h post-infection. How it is done: Determinations of in vivo efficacy are performed by inoculating mice intraperitoneally with cultures of the infecting organism diluted to produce 100% of mortality in control animals within twenty-four hours. The culture of S. aureus used to infect the animals was diluted to the required bacterial density using 5% aqueous hog gastric mucin. The compounds are dissolved or suspended in 0.25% aqueous Methocal® (Methocel®: Hydroxypropyl Methylcellulose, E15 Premium, Dow Chemical Company) for oral administration or sterile distilled water containing 5% dimethylsulfoxide (Fisher Scientific Company, Fairlawn, N.J.) for subcutaneous administration. The mice are dosed at one hour and at four hours post-infection. Mortality is recorded daily until test termination seven days post infection. The number of survivors in each treatment group on the seventh day after infection is used in the calculation of the ED50, the dose of compound that protects 50% of the mice (Litchfield, J. T. and Wildoxon. A simplified method for evaluating dose-effect experiments. J. Pharmacol Exp. Ther., 96:99-113, 1949 ).

[3] abbreviates: oral, survival at day 7, read-out: ED50, Oral Administration.
[4] abbreviates: sc, subcutaneous, survival at day 7, read-out: ED50, Subcutaneous Administration.

The source of these data is patent publication US4801600A, “Aminomethyl oxooxazolidinyl cycloalkylbenzene derivatives useful as antibacterial agents” (E. I. Du Pont de Nemours and Company, priority 1987, dated 1989).

≈ marks a conversion by molar mass, not a printed value. Read-outs that look alike come from different tables or passages of the source.

With `CC(=O)NCC1CN(c2ccc3c(c2)CCC3)C(=O)O1` (single isomer, unassigned) [Example 1F, (l)-N-[3-(2,3-Dihydro-1H-inden-5-yl)-2-oxooxazolidin-5-ylmethyl]acetamide], the MIC in the test on Staphylococcus aureus [1] was 2 µg/mL (≈ 7.29 µM); in the test on Escherichia coli it was > 128 µg/mL. The ED50 was found to be 2.2 mg/kg with Staphylococcus aureus [2] (setting [3]) and 1.7 mg/kg in the test with Staphylococcus aureus [2] (setting [4]).

Regarding `CC(=O)NCC1CN(c2ccc3c(c2)CCC3=O)C(=O)O1` (single isomer, unassigned) [Example 16, (l)-N-[3-(2,3-Dihydro-1-oxo-1H-inden-5-yl)-2-oxooxazolidin-5-ylmethyl]acetamide], the MIC in the test on Staphylococcus aureus [1] is 2 to 4 µg/mL (≈ 6.94 to 13.9 µM); in the test with Escherichia coli it was > 128 µg/mL. The results for the ED50 in the test on Staphylococcus aureus [2] (setting [3]) and with Staphylococcus aureus [2] (setting [4]) were 1.6 mg/kg and 1.2 mg/kg, respectively.

As for `CC(=O)NCC1CN(c2ccc3c(c2)CCC3O)C(=O)O1` (single isomer, unassigned) [Example 17, (l)-N-[3-(2,3-Dihydro-1-hydroxy-1H-inden-5-yl)-2-oxooxazolidin-5-ylmethyl]acetamide], the values for the MIC in the test on Staphylococcus aureus [1] and with Escherichia coli were 8 µg/mL (≈ 27.6 µM) and > 128 µg/mL, respectively. For the same compound, the ED50 was 1.9 mg/kg with Staphylococcus aureus [2] (setting [3]) and 1.8 mg/kg with Staphylococcus aureus [2] (setting [4]).

For `CC(=O)NCC1CN(c2ccc3c(c2)CCC3=NN2CCN(C)CC2)C(=O)O1` (single isomer, unassigned) [Example 18, (l)-N-[3-[1,2-Dihydro-1-(4-methyl-1-piperazinylimino)-1H-inden-5-yl]-2-oxooxazolidin-5-ylmethyl]acetamide], the MIC is 8 to 16 µg/mL (≈ 20.8 to 41.5 µM) in the test with Staphylococcus aureus [1] and > 128 µg/mL in the test on Escherichia coli. Also, the ED50 worked out at 13.9 mg/kg with Staphylococcus aureus [2] (setting [3]) and 20.3 mg/kg in the test with Staphylococcus aureus [2] (setting [4]).
